Test results published in patent publication US4053632A, “Compounds of spiro-amine type and methods for their use” (priority 1971, dated 1977).
“Also recorded” adds a separate entry of the source. Where two headings read alike, the source gives them in different places.

Experiments:
[1] = test system: uptake of 5-HT (midbrain slices); experiment: Inhibition of the uptake of tritiated 5-HT in vivo; design: species or system mouse; settings: for ED50: Mus musculus, ip, 0.5 h, i.p., in vivo, read-out: Inhibition (50 %) of uptake in vivo, 5-HT
Experimental: The drugs were administered intraperitoneally half an hour before the animals were killed and the midbrain was taken out and sliced and incubated in a mixture consisting of, per 100 mg of brain slices, 0.2 μmole of ^3 H-5-HT and 1 μmole of glucose in 2 ml of Krebs-Henseleit buffer, pH 7.4. The incubation time was 5 minutes with 5 minutes of preincubation before ^3 H-5-HT was added. The radioactive ^3 H-5-HT taken up in the slices was extracted with ethanol and the amount was determined by liquid scintillation. The dose producing 50 per cent decrease of the active uptake (ED50) was determined graphically from dose response curves. Active uptake is defined as that part of the radioactive uptake which is inhibited by a high concentration of cocaine. All doses were given at least to four animals.

mice [2] = experiment: Acute toxicity in mice; settings: in words
Experimental: (§3) The compounds were given by intravenous route to 3 mice. […] Seizures, gait, sedation and grip strength were recorded.
(§4) Acute toxicity was tested by the intraveneous, intraperitoneal and oral routes of administration. […] During the oral route a behavioral scoring system was used in order to relate changes in behavior to dose. The LD50 values were determined graphically from log dose -- response curves based on four doses with three animals per dose. Peripheral parasympatholytic effect was tested in mice by observing the mydriatic effect after intravenous injection (9) (four doses with three animals per dose). PD200 refers to the dose which increases the pupil width by 200%.

Catalepsy [3] = format: in vivo; settings: in vivo, ip, rat
From the text: (§1) Using the method and intensity scaring system described by Costall and Naylar, (7), the cataleptic properties of SIR 109 and chloropromazine were studied. Briefly, an animal was classed as cataleptic if it remained in an abnormal position for 15 seconds. Additionally, the duration the animal held this position was converted to a numerical scare as an indication of the intensity of the catalepsy.

catalepsy [4] = experiment: Catalepsy; format: in vivo; settings: rat
From the text: as §1

[5] = test system: conditioned avoidance response (CAR); experiment: Conditioned avoidance response in rats; format: in vivo, rat; settings: for ED50: Rattus norvegicus, ip, 1 h, i.p.
Experimental: For this reason the conditioned avoidance test has been developed for initial screening of neuroleptics. Rats were trained to avoid electrical shock by jumping from one compartment to the other in a shuttle box. The conditioned stimulus consists of an auditory signal which after eight seconds was followed by the electrical shock. The rates were trained to a criterion of making eight out of ten responses correctly. The drugs were injected one hour before the test. The avoidance responses are expressed in percentage of those before administration. CD50 is the dose which reduces the avoidance response to 50% of control values.

[6] = test system: uptake of noradrenaline (cortex slices); experiment: Inhibition of the uptake of tritiated noradrenaline in vitro (brain slices); format: biochemical; settings: dl-noradrenaline 10^-7 M
[7] = test system: uptake of noradrenaline (cortex slices); experiment: Inhibition of the uptake of tritiated noradrenaline in vivo; settings: ip, read-out: Inhibition (50 %) of uptake in vivo, NA
Experimental: The animals were killed half or one hour after the administration of the drugs in vivo (i.p.). The slices, made from cortex, were preincubated for five minutes and incubated with 0.1 μmole per ml of ^3 H-noradrenaline for further five minutes. The incubation mixture consisted of 0.2 μmole of ^3 H-NA and the brain slices in 2 ml of Krebs-Henseleits buffer, pH 7.4. The radioactive ^3 H-NA taken up in the slices was extracted with ethanol and the amount was determined by liquid scintillation. The dose producing 50 per cent decrease of the active uptake (ED50) was determined graphically from dose response curves. At least four animals were used at each dose level.

aggressive behavior = experiment: Aggressive behavior (anti-aggressive test) in isolated mice; format: in vivo, mouse; settings: mice
Experimental: Anxiolytic effect was defined as a block of aggressive behavior in mice. Male mice kept isolated for 3 weeks or longer develop an aggressive behaviour when caged together. The method used followed that reported by Valzelli et al. (8) with the exception that two mice were tested together. The aggressiveness was scored during a five minute test according to the following scale:
0: the animals show no interest in each other except occasional nosing,
[…]: frequent vigorous nosing and tail twitching. The animals assume a fighting position and occasionally attack the partner -- no more than 3-4 times in the period of five minutes,
50: tail twitching, powerful attacks -- no more than 10 times during the test period,
75: the animals pursue their partners, attacking and biting for most of the time,
100: attacks over the entire period.
Controls administered with the solvent were tested. […] The animals were used for several experiments but with intervals of at least one week. Groups of 10 mice were used, and they were tested one hour after the administration of the drug. The animals were used as their own controls.

[8] = test system: uptake of 5-HT (midbrain slices); experiment: Inhibition of the uptake of tritiated 5-HT in vitro (brain slices); format: biochemical, mouse
[9] = test system: NA turnover / noradrenaline receptor; experiment: Estimation of NA receptor blockade (NA turnover) in the rat brain; format: in vivo
From the text: (§2) The estimation of catecholamine (CA) turnover was made by using the tyrosine hydroxylase inhibitor α-methyl tyrosine methyl ester (H 44/68) (4). This technique is based on the assumption that dopamine (DA) or noradrenaline (NA) receptor blockade will mediate an increase in CA turnover and result in lowered CA levels in the brain compared to H 44/68 alone. Since DA receptor blockade is assumed to be a biochemical correlate to antipsychotic action, this test gives a biochemical evidence for an antipsychotic effect. In this particular test the DA and NA levels in the brain were measured biochemically (5,6).

in vivo = settings: mouse
Experimental: as §3, §4

[10] = test system: methamphetamine induced hyperactivity; experiment: Antagonism of methamphetamine-induced hyperactivity; format: in vivo, mouse; settings: mice, FIG. 1, in words
Experimental: Sedatives (e.g. barbiturates, benzodiazepines and propandiols) on the other hand generally potentiate the induced hyperactivity. The interaction with amphetamines consequently gives an indication of the mechanism of a drug. Male mice were pretreated with the test drug 30 minutes before the administration of methamphetamine 3 mg/kg i.p. After 20 minutes the spontaneous motor activity was measured for 20 minutes by an Animex activity meter, which can distinguish between slight and considerable motion. The animals were tested in groups of three and used only once. Control groups treated with saline alone or the test drug and saline according to the testing schedule were run simultaneously.

pupil width (mydriasis) = settings: mouse, in vivo; for PD200 (Table 4) / Peripheral anti-cholinergic action PD200: iv, 10 min
Experimental: as §3, §4

motor activity = experiment: Motor activity in mice; format: in vivo, mouse; settings: for ED50: Mus musculus, 1 h; for ED50 / sedation (motor activity) versus CPZ: mice; for sedation / tranquilizing effect / sedation (motor activity) versus CPZ: in words
Experimental: The exploratory activity of mice was recorded in a locomotion cage in which the movements were counted each time the animals cross-circuits on electrical current in the bottom plate. […] The animals were tested individually. Groups of six mice were used and the mice were only used once. The activity was expressed in percent of the activity of control groups ran simultaneously.
Sedative activity was defined as suppression of normal motor activity. The motor activity in mice was automatically recorded in a locomotion cage in which the movements are counted each time the animal short-circuits an electrical current in the bottom plate. […] The animals were tested individually. Groups of six mice were used. The activity was expressed in percent of the activity of control groups run simultaneously.

mice [11] = experiment: Behavioral observation (ptosis, catatonia) in mice; format: in vivo, mouse; settings: mouse, in vivo
[12] = test system: DA turnover / dopamine receptor; experiment: Estimation of DA receptor blockade (DA turnover) in the rat brain; format: in vivo
From the text: as §2

l-Dopa response = experiment: Dopa response potentiation test; format: in vivo, mouse; settings: Mus musculus, ip; read-out: Potentiation of l-Dopa, effective dose
Experimental: This test is developed by G.M. Everett (Antidepressant drugs,[…] in groups of 3 are pretreated with Pargyline ®40 l mg/kg p.o. about 10-16 hours before the test. […] 1. piloerection, slight salivation, slight increased motor activity 2. piloerection, salivation, marked increased motor activity and irritability 3. piloerection, profuse salivation, marked irritability and reactivity, jumping, squeaking, fighting.

rabbits = experiment: Drug induced arrhythmias in rabbits; format: in vivo, rabbit
From the text: Test drugs were intravenously administered to male rabbits anesthesized wth amytal. The doses were increased stepwise up to the lethal dose and the first dose which induced arrhythmia was noted.

5-HTP response = 5-HTP response potentiation test; format: in vivo, mouse; settings: Mus musculus, ip
Experimental: These small movements are quantitatively measured in an activity box, type Animex, which can distinguish between small and gross movements. The activity is measured during 20 minutes and only in the case the animals have a fullblown syndrome.

[13] = ip, i.p., read-out: Motor activity ID50 (Table 4)

SMILES | ED50 [1] [mg/kg] | acute toxicity versus CPZ (mice [2]) | Inhibition (50 %) of uptake in vitro, NA [6] [µg/mL] | ED50 [7] [mg/kg] | Inhibition (50 %) of uptake in vitro, 5-HT [8] [µg/mL] | LD50 at 24 h (in vivo; iv) [mg/kg] | PD200 (Table 4) (pupil width (mydriasis)) [mg/kg] | ED50 (motor activity; read-out: Motor activity ID50) [mg/kg] | ED50 (motor activity; [13]) [mg/kg] | sedation / tranquilizing effect (motor activity) | sedation (motor activity) versus CPZ (motor activity) | minimal effective dose (l-Dopa response) [mg/kg] | Peripheral anti-cholinergic action PD200 (pupil width (mydriasis)) [mg/kg] | minimal effective dose (5-HTP response) [mg/kg] | also measured
CN(C)C1C=CC2(CC1)c1ccccc1CCc1ccc(Cl)cc12 (racemic) [SIR 109, 3'-chloro-10', 11'-dihydro-4-(dimethylamino)spiro[2-cyclohexene-1,5'(5'H)-dibenzo[a,d]cycloheptene]] | > 40 | considerably less toxic than CPZ both after i.v., i.p. and oral administration in the mice; also recorded: considerably less toxic after acute administration | 1.5 | 40 | 1.3 | 40 | > 40 | 5 | 5 | tranquilizing effect of the compound; also recorded: strongly sedative or tranquilizing | caused sedation in the mice at about the same dose as CPZ; also recorded: about as potent as chlorpromazine | – | – | – | ED50 (Catalepsy [3]): 25 mg/kg; Catalepsy intensity score (catalepsy [4]): 0.75; cataleptic effect (catalepsy [4]; in words): weak cataleptic effect in the rat; also recorded: intensity of catalepsy was considerably lower after SIR 109 compared to CPZ; also recorded: low cataleptic action; ED50 ([5]; rat, read-out: CAR CD50): 7.5 to 10 mg/kg; ED50 ([5]; read-out: CAR ED50 (Table 4)): 7.5 to 10 mg/kg; effect on conditioned avoidance response ([5]; rat, in words): somewhat less active than chlorpromazine; also recorded: about as potent as chlorpromazine; ED50 (aggressive behavior; Mus musculus, ip, 1 h, i.p., read-out: Anti-aggresive test ED50): 0.27 mg/kg; effect on aggressive behavior (aggressive behavior; in words): potent at a dose which does not cause sedation; also recorded: strong effect of SIR 109 on aggressive behavior at non-sedative doses; effect on NA turnover / selectivity versus DA turnover ([9]; in words): seems to be more selective than chlorpromazine since it influences NA turnover first at higher doses; also recorded: more selective compound than chlorpromazine since it affects NA turnover first at higher doses; minimal effective dose ([9]; ip, rat, after H 44/68 250 mg/kg i.p., read-out: first significant dose, effect on brain noradrenaline level): 10 to 15 mg/kg; LD50 at 24 h (in vivo; ip): 185 mg/kg; LD50 at 24 h (in vivo; po): 250 mg/kg; block of methamphetamine induced hyperactivity [10]: blocked methamphetamine induced hyperactivity in mice; also recorded: about as potent as chlorpromazine; peripheral (parasympatholytic) effects (pupil width (mydriasis)): weak peripheral effects; threshold dose for ptosis (mice [11]): 31 mg/kg; catatonic state (mice [11]; po): did not cause any catatonic state; effect on DA turnover ([12]; in words): effects DA turnover at about the same dose; also recorded: about as potent as chlorpromazine; minimal effective dose ([12]; ip, rat, after H 44/68 250 mg/kg i.p., read-out: first significant dose, effect on brain dopamine level): 5 mg/kg
NC1C=CC2(CC1)c1ccccc1C=Cc1ccccc12 (centres unmarked) [CPG 186] | 28 | – | 1.5 | 14 | > 10 | 25 | – | > 50 | – | gave sedation only in high doses | – | > 10 | > 25 | 25 | blocking the uptake of 5-HT in vivo versus imipramine ([1]; in words): blocks the uptake of 5-HT in equivalent doses; arrhythmia in rabbits (rabbits; nonlethal doses, in words): did not cause arrhythmia in nonlethal doses in rabbits; Arrythmia (rabbit), accumulated i.v. dose where there are signs of arrythmia (rabbits; rabbit, in vivo, iv): > 10; anticholinergic effects (pupil width (mydriasis)): devoid of the anticholinergic effects
CN(C)C1CCC2(CC1)c1ccccc1CCc1ccc(Cl)cc12 (centres unmarked) [SIR 117] | > 40 | intravenous toxicity in the same range as CPZ | 1.5 | > 40 | 5 | 27 | 15 | 14 | 14 | – | somewhat less active | > 10 | 15 | > 25 | –
CN(C)C1CCC2(CC1)c1ccccc1C=Cc1ccc(Cl)cc12 (centres unmarked) [SIR 118] | > 40 | intravenous toxicity in the same range as CPZ | 1.5 | > 40 | 4 | 18 | – | 11 | 11 | – | somewhat less active | > 10 | 9 | > 25 | –
